Reference: PubChem BioAssay AID1259407 (Chemical Carcinogenesis Research Information System (CCRIS), 2018)
Active and inactive are the calls of the source. The rule behind the calls is not given here.

Test system: CCRIS mutagenicity, Ames/micronucleus/aberration tests
Test: CCRIS mutagenicity studies

Measured: mutagenic call

Cc1c2ccccc2c(C)c2c1ccc1ccccc12
inactive: Test System: AMES SALMONELLA TYPHIMURIUM, Strain/Indicator: TA1535, Metabolic Activation: RAT, LIVER, S-9, AROCLOR 1254, Method: SPIRAL ASSAY inactive; negative | Test System: AMES SALMONELLA TYPHIMURIUM, Strain/Indicator: TA1535, Metabolic Activation: RAT, LIVER, S-9, AROCLOR 1254, Method: STANDARD PLATE inactive; negative | Test System: CHINESE HAMSTER V-79, Strain/Indicator: V-79/6-THIOGUANINE, Metabolic Activation: NONE, Method: STANDARD PLATE inactive; negative | Test System: CHINESE HAMSTER V-79, Strain/Indicator: V-79/OUABAIN, Metabolic Activation: NONE, Method: STANDARD PLATE inactive; negative | Test System: E. COLI, Strain/Indicator: WP2 UVRA, Metabolic Activation: HAMSTER, LIVER, S-9, AROCLOR 1254, Method: STANDARD PLATE inactive; negative | Test System: E. COLI, Strain/Indicator: WP2 UVRA, Metabolic Activation: HAMSTER, LIVER, S-9, Method: STANDARD PLATE inactive; negative | Test System: E. COLI, Strain/Indicator: WP2 UVRA, Metabolic Activation: MOUSE, LIVER, S-9, AROCLOR 1254, Method: STANDARD PLATE inactive; negative | Test System: E. COLI, Strain/Indicator: WP2 UVRA, Metabolic Activation: MOUSE, LIVER, S-9, Method: STANDARD PLATE inactive; negative | Test System: E. COLI, Strain/Indicator: WP2 UVRA, Metabolic Activation: NONE, Method: STANDARD PLATE inactive; negative | Test System: E. COLI, Strain/Indicator: WP2 UVRA, Metabolic Activation: RAT, LIVER, S-9, AROCLOR 1254, Method: STANDARD PLATE inactive; negative | Test System: E. COLI, Strain/Indicator: WP2 UVRA, Metabolic Activation: RAT, LIVER, S-9, Method: STANDARD PLATE inactive; negative | Test System: MOUSE LYMPHOMA, Strain/Indicator: L5178Y (TK+/TK-), Metabolic Activation: NONE, Method: SUSPENSION/PLATE inactive; negative
active: Test System: AMES SALMONELLA TYPHIMURIUM, Strain/Indicator: TA1537, Metabolic Activation: NONE, Method: SPIRAL ASSAY active; positive | Test System: AMES SALMONELLA TYPHIMURIUM, Strain/Indicator: TA1537, Metabolic Activation: NONE, Method: STANDARD PLATE active; positive | Test System: AMES SALMONELLA TYPHIMURIUM, Strain/Indicator: TA1537, Metabolic Activation: RAT, LIVER, S-9, AROCLOR 1254, Method: SPIRAL ASSAY active; positive | Test System: AMES SALMONELLA TYPHIMURIUM, Strain/Indicator: TA1537, Metabolic Activation: RAT, LIVER, S-9, AROCLOR 1254, Method: STANDARD PLATE active; positive | Test System: AMES SALMONELLA TYPHIMURIUM, Strain/Indicator: TA1537, Metabolic Activation: RAT, LIVER, S-9, KC500 OR PHENOBARBITAL, Method: LIQUID SUSPENSION active; positive | Test System: AMES SALMONELLA TYPHIMURIUM, Strain/Indicator: TA1538, Metabolic Activation: RAT, LIVER, S-9, AROCLOR 1254, Method: STANDARD PLATE active; positive | Test System: CHINESE HAMSTER OVARY, Strain/Indicator: CHO-K1-BH4 (HGPRT), Metabolic Activation: RAT, LIVER, S-9, AROCLOR, Method: SUSPENSION/PLATE active; positive | Test System: CHINESE HAMSTER V-79, Strain/Indicator: V-79/6-THIOGUANINE, Metabolic Activation: RAT, HEPATOCYTES, BUTYLATED HYDROXYANISOLE, Method: STANDARD PLATE active; positive | Test System: CHINESE HAMSTER V-79, Strain/Indicator: V-79/6-THIOGUANINE, Metabolic Activation: RAT, HEPATOCYTES, Method: STANDARD PLATE active; positive | Test System: CHINESE HAMSTER V-79, Strain/Indicator: V-79/6-THIOGUANINE, Metabolic Activation: RAT, LIVER, S-9, PHENOBARBITAL, Method: STANDARD PLATE active; positive | Test System: CHINESE HAMSTER V-79, Strain/Indicator: V-79/8-AZAGUANINE, Metabolic Activation: CELL-MEDIATED, Method: STANDARD PLATE active; positive | Test System: CHINESE HAMSTER V-79, Strain/Indicator: V-79/OUABAIN, Metabolic Activation: RAT, HEPATOCYTES, BUTYLATED HYDROXYANISOLE, Method: STANDARD PLATE active; positive | Test System: CHINESE HAMSTER V-79, Strain/Indicator: V-79/OUABAIN, Metabolic Activation: RAT, HEPATOCYTES, Method: STANDARD PLATE active; positive | Test System: MOUSE LYMPHOMA, Strain/Indicator: L5178Y (TK+/TK-), Metabolic Activation: RAT, LIVER, S-9, AROCLOR 1254, Method: SUSPENSION/PLATE active; positive | Test System: MOUSE SPLENIC LYMPHOCYTES, Strain/Indicator: C57BL/6 (TK+/-)/C57BL/6 (HPRT), Metabolic Activation: NONE, Method: IN VIVO/SUSPENSION/PLATE active; positive | Test System: UDS MONKEY HEPATOCYTES, Strain/Indicator: THY INCORP, Metabolic Activation: AROCLOR 1254, Method: AUTORADIOGRAPHY active; positive | Test System: UDS MONKEY HEPATOCYTES, Strain/Indicator: THY INCORP, Metabolic Activation: NONE, Method: AUTORADIOGRAPHY active; positive | Test System: UDS MOUSE EPIDERMIS IN VIVO/IN VITRO, Strain/Indicator: HOS:HR-1/THYMIDINE INCORPORATION, Metabolic Activation: NONE, Method: LIQUID SCINTILLATION active; positive | Test System: UDS RAT HEPATOCYTES, Strain/Indicator: BROMODEOXYURIDINE INCORP, Metabolic Activation: NONE, Method: FLOW CYTOMETRIC ANALYSIS active; positive | Test System: UDS RAT HEPATOCYTES, Strain/Indicator: THY INCORP, Metabolic Activation: NONE, Method: AUTORADIOGRAPHY active; positive | Test System: UDS RODENT HEPATOCYTES, Strain/Indicator: THY INCORP (NON-S-PHASE), Method: AUTORADIOGRAPHY active; positive | Test System: UDS RODENT PRIMARY CELLS, Strain/Indicator: THY INCORP (NON-S-PHASE), Metabolic Activation: NONE, Method: AUTORADIOGRAPHY active; positive
